From patent US10280158B2, “Immune adjustment compound, use thereof and pharmaceutical composition comprising same” (SUZHOU CONNECT BIOPHARMACEUTICALS, LTD., priority 2013, dated 2019)

Assays:
[1] = In vivo pharmacokinetic experiment, oral administration; design: species or system Sprague Dawley rats; conditions: for half-life / AUC(0-inf) / Cmax / Tmax: male, Sprague-Dawley, rat, plasma; for half-life: po, 3 mg/kg; for elimination speed after the highest concentration, compared with compounds 1 and 5: oral administration, FIGS. 1A and 1B
Description: (§1) In this Example, the pharmacokinetic properties of compounds 1, 2, 3, 4 and 5 were evaluated via. i.v. and p.o. dosing to Sprague Dawley rats.
(§2) Experimental animals used in this Example and hereinafter were male SD rats of 7-9 weeks old, with body weight ranging from 186 to 231 g, which were purchased from Beijing Vital River Laboratory Animal Technology Co., Ltd. The animals were quarantined by veterinarian for 5 days after purchase, then animals had passed quarantine inspection were selected to be tested under SPE conditions, wherein the tested animals are assigned into 3 rats per group as follows.
Oral administration group: 2.74 mg of each of compounds 1-5 was respectively prepared into a solution of 0.3 mg/mL by using 9.113 mL 0.5% CMC-Na as a diluent. Each solution was vortexed 1-2 mins after mixed fully, and then was ultrasonically treated for 20-30 mins until a uniform suspension was obtained. The uniform suspension was used as medicine administrated to oral administration group, and the administration was conducted with a dose of 10 mL/kg body weight of each rat.
(§3) For both oral administration group and intravenous administration group, blood samples were collected at 0.0833 h (5 min), 0.25 h (15 min), 0.5 h, 1 h, 2 h, 4 h, 8 h, and 24 h after administration. After isoflurane anesthesia 0.3 mL whole blood was collected from orbital venous plexus of the animals at each time point. The animals would be euthanized after all samples were collected.
(§4) The collected blood samples were placed in EP tubes containing heparin sodium (about 10 μl, 1000 IU/mL), which were then placed in trash ice immediately, and centrifuged at 4,000 rpm and a low temperature (4° C.) for 5 minutes. The plasma was isolated rapidly and then stored at −20° C. until analysis.
(§5) The concentration of each compound in blood was measured by LC-MS/MS-001 (Q-trap-3200) with osalmide as internal standard material, as follows. 24 μL blank plasma was added into 6 μL plasma sample (5 times of dilution), and then a solution of acetonitrile containing 150 μL internal standard material (osalmide in 100 μg/mL) was added in. The mixture was shaken for 5 minutes, and then centrifuged at 4,000 rpm for 5 minutes. 2 μL of the obtained sample was implanted into LC-MS/MS for analysis. As for undiluted plasma sample, 30 μL of it was added into a solution of acetonitrile containing 150 μL internal standard material (osalmide in 100 μg/mL). The mixture was shaken for 5 minutes, and then centrifuged at 4,000 rpm for 5 minutes. 2 μL of the obtained sample was implanted into LC-MS/MS for analysis.
(§6) As for data analysis, WinNolin (V6.2) non-compartment model (NCA) was used for calculating main metabolic pharmacokinetic parameters including t1/2, AUC(0−t), AUCinf, V, Cl, MRT, etc., and Microsoft Office EXCEL was used for calculating mean values, standard deviations and coefficients of variation.

[2] = In vivo pharmacokinetic experiment, intravenous administration; design: species or system Sprague Dawley rats; conditions: for AUC(0-inf) / MRT inf / clearance / half-life / Vd: male, Sprague-Dawley, rat, plasma, intravenous administration (1 mg/kg), SD rats; for half-life: read-out: T½ (converted); for Vd: read-out: Vss; for mean residence time (MRT) compared with compound 1 / terminal half-life compared with compound 1: intravenous administration, rats, in words
Description: as §1, §2
Intravenous administration group: 1.61 mg of each of compounds 1-5 was respectively prepared into a solution of 1 mg/mL by using 1.610 mL 10% HP-β-CD as a diluent. Each solution was vortexed 1-2 mins after mixed fully, and then was ultrasonically treated for 28-30 mins. The obtained solution was used as medicine administrated to intravenous administration group, and the administration was conducted with a dose of 1 mL/kg body weight of each rat.
as §3, §4, §5, §6

human S1P1 = molecular target: T1, human S1P1 (Homo sapiens, UniProt P21453); assay: Internalization effect experiment on S1P1 (CHO-S cells, Myc tag, flow cytometry); format: cell-based; conditions: for EC50: CHO-S cells expressing human S1P1, 1 hour at 37° C., read-out: Receptor Internalization (EC50) S1P1; for activity of inducing S1P1 internalization: CHO-S cells expressing human S1P1, in words
T1 construct: expressed in transfected cells; host or cells: CHO-S cells
Source text: It is well known that S1P1 small molecule agonists can prevent lymphocytes from entering the peripheral circulation by inducing internalization of S1P1 on cell surface. In order to determine whether the compounds provided by present invention have an activity of inducing S1P1 internalization, CHO—S cells expressing human S1P1, to replace the lymphocytes, are used as detection system of S1P1 internalization. For ease of monitoring the S1P1 on cell surface, a Myc tag is fused to N-terminal of S1P1, thus the expression of S1P1 is analyzed by flow cytometry after incubating the cells with fluorescent-labeled antibody against the Myc tag.
A 10 mM stock solution was prepared by dissolving compound 2 provided by the present invention in dimethyl sulfoxide (DMSO), and then the stock solution was diluted to different concentrations as desired with DMEM. CHO—S cells bearing human S1P1 with Myc tag were harvested and then adjusted to a density of one million cells per mL by Dulbecco's modified Eagle's medium (DMEM). Different concentrations of Compound 2 diluted in an equal volume were mixed and the cell suspension and then incubated at 37° C. for 1 hour. After incubation, the mixture was centrifuged at 800 RPM for 5 minutes to obtain the cells. The cells were resuspended in FACS buffer (PBS containing 1% BSA), and Myc antibody labelled with fluorescein isothiocyanate (FITC) (from Californian Miltenyi Biotec GmbH, USA) was added in and incubated for 1 hour on ice. The cells were washed, resuspended in pre-cooled FACS buffer and analysed by FACS Calibur flow cytometry.

human S1P3 = human S1P3 (Homo sapiens, UniProt Q99500); assay: Internalization effect experiment of S1P3 (CHO-S cells); format: cell-based; conditions: for internalization activation effect on S1P3 subtype: CHO-S cells expressing human S1P3, in words; for EC50: CHO-S cells expressing human S1P3, read-out: Receptor Internalization (EC50) S1P3
Description: CHO—S cells bearing human S1P1 with Myc tag were harvested and then adjusted to a density of one million cells per mL by Dulbecco's modified Eagle's medium (DMEM). […] After incubation, the mixture was centrifuged at 800 RPM for 5 minutes to obtain the cells. The cells were resuspended in FACS buffer (PBS containing 1% BSA), and Myc antibody labelled with fluorescein isothiocyanate (FITC) (from Californian Miltenyi Biotec GmbH, USA) was added in and incubated for 1 hour on ice. The cells were washed, resuspended in pre-cooled FACS buffer and analysed by FACS Calibur flow cytometry.
CHO—S cells expressing human S1P3 were used to perform internalization detection test. Besides cells, experimental method was the same with the method of the internalized detection experiment of S1P1.

[3] = oral administration (3 mg/kg), SD rats, read-out: T½ (converted)
[4] = oral administration (3 mg/kg), SD rats
[5] = after oral administration, rats
[6] = after oral administration, rats, read-out: terminal half-life (converted)

human S1P3, sequence (Q99500 whole entry): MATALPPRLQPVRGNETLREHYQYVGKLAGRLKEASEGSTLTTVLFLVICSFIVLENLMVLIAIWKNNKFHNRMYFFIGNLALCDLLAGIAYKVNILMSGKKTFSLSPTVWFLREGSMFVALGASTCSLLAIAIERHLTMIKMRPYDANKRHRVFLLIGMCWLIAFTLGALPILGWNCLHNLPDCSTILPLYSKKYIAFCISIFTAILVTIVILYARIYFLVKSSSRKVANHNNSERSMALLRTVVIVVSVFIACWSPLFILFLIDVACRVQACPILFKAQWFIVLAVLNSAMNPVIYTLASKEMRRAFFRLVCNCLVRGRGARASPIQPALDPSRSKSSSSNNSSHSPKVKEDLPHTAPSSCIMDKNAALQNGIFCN
T1 sequence (P21453 whole entry): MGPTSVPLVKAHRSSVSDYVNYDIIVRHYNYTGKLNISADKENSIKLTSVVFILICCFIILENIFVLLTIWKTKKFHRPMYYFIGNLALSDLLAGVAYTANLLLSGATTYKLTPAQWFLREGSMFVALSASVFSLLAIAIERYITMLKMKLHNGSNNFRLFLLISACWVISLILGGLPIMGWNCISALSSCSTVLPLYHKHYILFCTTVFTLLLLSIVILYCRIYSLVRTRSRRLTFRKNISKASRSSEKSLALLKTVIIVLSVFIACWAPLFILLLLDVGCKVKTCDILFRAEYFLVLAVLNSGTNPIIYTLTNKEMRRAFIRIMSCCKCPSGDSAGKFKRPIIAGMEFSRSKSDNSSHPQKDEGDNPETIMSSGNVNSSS

| half-life [1, 3] | AUC(0-inf) [1, 4] | Cmax [1, 4] | Tmax [1, 4] | F [1, 4] | half-life compared with compound 1 ([1]; oral and intravenous (Tables 1 and 2), rats, in words) | AUC(0-inf) [2] | MRT inf [2] | clearance [2] | half-life [2] | Vd [2] | EC50 (human S1P1) | half-life shortening relative to compound 1 [1, 5] | half-life [1, 6] | elimination speed after the highest concentration, compared with compounds 1 and 5 ([1]; rats, in words) | EC50 (human S1P3) | mean residence time (MRT) compared with compound 1 [2] | terminal half-life compared with compound 1 [2] | Structure (SMILES) | activity of inducing S1P1 internalization (human S1P1) | internalization activation effect on S1P3 subtype (human S1P3) |
| --- | --- | --- | --- | --- | --- | --- | --- | --- | --- | --- | --- | --- | --- | --- | --- | --- | --- | --- | --- | --- |
| 12.3 ± 2.09 h | 5460 ± 401 ng·h/mL | 249 ± 8.74 ng/mL | 3.33 h | 74.0% | extended rather than shortened | 2200 ± 89.5 ng·h/mL | 12.9 ± 1.24 h | 7.57 mL/min/kg | 10.1 ± 1.02 h | 5.87 ± 0.802 L/kg | – | – | – | – | – | – | – | Cc1cc(-c2noc(-c3ccc(CC(C)C)cc3)n2)ccc1CN1CC(C(=O)O)C1 [Compound 5, 1-{2-methyl-4-[5-(4-isobutylphenyl)-1,2,4-oxadiazol-3-yl]-benzyl}-3-azetidine carboxylic acid] | – | – |
| 5.3 ± 0.51 h | 8110 ± 469 ng·h/mL | 681 ± 61.1 ng/mL | 3.33 h | 96.1% | – | 2770 ± 410 ng·h/mL | 5.11 ± 0.39 h | 6.1 mL/min/kg | 5.04 ± 0.37 h | 2.65 ± 0.229 L/kg | 3.21 nM | ~50% | < 5.5 h | accelerated obviously | > 1000 nM | reduced significantly | reduced significantly | CC(C)Cc1ccc(-c2nc(-c3ccc(CN4CC(C(=O)O)C4)c(Cl)c3)no2)cc1 [Compound 3, 1-{2-chloro-4-[5-(4-isobutylphenyl)-1,2,4-oxadiazol-3-yl]-benzyl}-3-azetidine carboxylic acid] | no significant difference with that of compound 1 | no internalization activation effect on S1P3 subtype |
| 5.37 ± 0.15 h | 4420 ± 449 ng·h/mL | 346 ± 29.6 ng/mL | 1.15 h | 52.9% | – | 2770 ± 200 ng·h/mL | 5.23 ± 0.36 h | 6.03 mL/min/kg | 5.29 ± 0.6 h | 2.75 ± 0.112 L/kg | 4.2 nM | ~50% | < 5.5 h | accelerated obviously | > 1000 nM | reduced significantly | reduced significantly | CC(C)Cc1ccc(-c2nc(-c3ccc(CN4CC(C(=O)O)C4)c(Br)c3)no2)cc1 [Compound 4, 1-{2-bromo-4-[5-(4-isobutylphenyl)-1,2,4-oxadiazol-3-yl]-benzyl}-3-azetidine carboxylic acid] | no significant difference with that of compound 1 | no internalization activation effect on S1P3 subtype |
| 10.6 ± 1.07 h | 6200 ± 147 ng·h/mL | 365 ± 51.5 ng/mL | 2 h | 82.5% | – | 2380 ± 329 ng·h/mL | 11 ± 1.2 h | 7.12 mL/min/kg | 8.69 ± 0.8 h | 4.65 ± 0.389 L/kg | 5.69 nM | – | ~11 h | – | > 1000 nM | – | – | CC(C)Cc1ccc(-c2nc(-c3ccc(CN4CC(C(=O)O)C4)cc3)no2)cc1 [Compound 1, 1-{4-[5-(4-isobutylphenyl)-1,2,4-oxadiazol-3-yl]-benzyl}-3-azetidine carboxylic acid, reference compound] | – | – |
